The record followed here is US11814364B2, “Pyridine N-oxide derivatives useful as factor XIa inhibitors” (Janssen Pharmaceutica NV, priority 2021, dated 2023).

Chain of human plasma kallikrein (P03952 391-638 limits assumed): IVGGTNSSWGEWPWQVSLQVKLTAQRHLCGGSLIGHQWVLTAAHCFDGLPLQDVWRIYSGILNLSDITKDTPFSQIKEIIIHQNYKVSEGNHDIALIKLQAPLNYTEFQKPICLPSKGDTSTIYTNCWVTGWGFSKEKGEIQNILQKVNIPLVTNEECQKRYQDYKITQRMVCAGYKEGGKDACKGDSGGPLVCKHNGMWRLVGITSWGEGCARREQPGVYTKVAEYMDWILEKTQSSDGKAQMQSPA
Chain of human plasma kallikrein (P03952 20-390 partner limits assumed): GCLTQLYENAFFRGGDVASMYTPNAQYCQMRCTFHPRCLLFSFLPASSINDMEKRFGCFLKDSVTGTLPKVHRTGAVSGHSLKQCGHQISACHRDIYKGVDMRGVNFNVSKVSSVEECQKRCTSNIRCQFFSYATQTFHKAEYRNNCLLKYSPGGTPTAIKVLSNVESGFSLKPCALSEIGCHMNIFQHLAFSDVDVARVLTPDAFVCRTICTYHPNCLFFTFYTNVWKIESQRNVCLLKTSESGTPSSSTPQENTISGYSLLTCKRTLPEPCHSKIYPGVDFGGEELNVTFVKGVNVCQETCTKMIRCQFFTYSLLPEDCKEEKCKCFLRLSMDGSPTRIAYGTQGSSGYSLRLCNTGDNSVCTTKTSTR

This assay has as its target human plasma kallikrein (Homo sapiens, UniProt P03952). Description: Kallikrein inhibition FLINT assay with quenched AMC peptide substrate Z-Gly-Pro-Arg-AMC (end point EP or kinetic KIN reads). The format is biochemical. To be noted: kinetic reads at 5 min intervals over 30 min; read-out: Kallikrein (KIN) IC50. The method, boiled down: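 Enzyme and compound were preincubated 30 min before adding 50 μM AMC substrate in pH 7.5 Tris/NaCl/CaCl2/BSA/CHAPS buffer. AMC release was read at 30 min endpoint or every 5 min.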
As for `Cc1cc(-c2cnn(C(Cn3cc(F)cn3)c3ccc(-c4c(-n5cnnn5)ccc(Cl)c4F)c[n+]3[O-])c2)cc[n+]1[O-]` (stereo not shown) [Example P472], the IC50 amounted to 40.7 nM.
As for `[O-][n+]1cc(-c2c(-n3cnnn3)ccc(Cl)c2F)ccc1[C@@H](CCOC(F)F)n1cc(-c2c(F)cncc2Cl)cn1` [Example P583], the figure is 1.5 nM.
As for `Cn1cncc1-c1cnn(C(Cn2cc(F)cn2)c2ccc(-c3c(-n4cnnn4)ccc(Cl)c3F)c[n+]2[O-])c1` (stereo not shown) [Example P502], the figure is 30.1 nM.
For the compound `[O-][n+]1cc(-c2c(-n3cc(C(F)(F)F)nn3)ccc(Cl)c2F)ccc1C(Cc1ccn(C(F)F)n1)n1cc(-c2ncnn2C(F)F)cn1` (single isomer, unassigned) [Example P837], the IC50 was 48.3 nM.
As for `O=C(C1CC1CC(c1ccc(-c2c(-n3cnnn3)ccc(Cl)c2F)c[n+]1[O-])n1cc(-c2ccncc2)cn1)N1CCCC1` (stereo not shown) [Example P266], the figure is 197 nM; as for `COc1cc(C(CC2CC2)n2cc(-c3sc(C(N)=O)cc3C)cn2)[n+]([O-])cc1-c1cc(Cl)ccc1-n1cc(C(F)(F)F)nn1` (single isomer, unassigned) [Example P958], 13.1 nM.
The same measure for `[O-][n+]1cc(-c2c(-n3cnnn3)ccc(Cl)c2F)ccc1[C@@H](Cc1cn(C(F)F)nn1)n1cc(-c2ccnc(C(F)(F)F)c2)cn1` [Example P748]: 6.4 nM; for `[O-][n+]1cc(-c2c(-n3cc(Cl)nn3)ccc(Cl)c2F)ccc1[C@@H](Cn1cc(F)cn1)n1cc(-c2ccnn2C(F)F)cn1` [Example P643]: 50.5 nM; for `NC(=O)c1cnn(CC(c2ccc(-c3c(-n4cnnn4)ccc(Cl)c3F)c[n+]2[O-])n2cc(-c3ccnc(C(F)(F)F)c3)cn2)c1` (stereo not shown) [Example P483]: 9.1 nM.
With `Cn1cc(-c2cnn([C@H](Cc3ccn(C(F)F)n3)c3ccc(-c4c(-n5cc(C#N)nn5)ccc(Cl)c4F)c[n+]3[O-])c2)c(Cl)n1` [Example P852], the IC50 was 2.2 nM.
The same measure for `[O-][n+]1cc(-c2cc(Cl)ccc2-n2cnnn2)ccc1C(Cc1ccc(Cl)cc1)n1cc(-c2ccc(F)nc2)cn1` (stereo not shown) [Example P173]: 78.4 nM.
The same measure for `N#Cc1cnn(CC(c2ccc(-c3c(-n4cc(C(F)(F)F)nn4)ccc(Cl)c3F)c[n+]2[O-])n2cc(-c3ccc(C(N)=O)c(F)c3)cn2)c1` (stereo not shown) [Example P955]: 613 nM.
The same measure for `[2H]C([2H])(CC(c1ccc(-c2cc(Cl)ccc2C#N)c[n+]1[O-])n1cc(-c2ncnn2C(F)F)cn1)OC(F)F` (single isomer, unassigned) [Example Q53]: 222 nM.
`O=C(O)c1ccc(-c2cnn(C(CC3CC3C(=O)N3CCC(c4ccccc4)C3)c3ccc(-c4c(-n5cnnn5)ccc(Cl)c4F)c[n+]3[O-])c2)cc1` (stereo not shown) [Example P175]: the IC50 worked out at 365 nM.
As for `COc1cnc(F)c(-c2cnn(C(CC3CC3)c3ccc(-c4c(-n5cnnn5)ccc(Cl)c4F)c[n+]3[O-])c2)c1` (stereo not shown) [Example P75], the figure is 249 nM.
Take `O=C1CCCN1CC(c1ccc(-c2c(-n3cnnn3)ccc(Cl)c2F)c[n+]1[O-])n1cc(-c2cc[n+]([O-])cc2)cn1` (single isomer, unassigned) [Example P244]: the IC50 came to 22.4 nM.
As for `[O-][n+]1cc(-c2c(-n3cnnn3)ccc(Cl)c2F)ccc1[C@@H](Cc1nccs1)n1cc(-c2ccnn2C(F)F)cn1` [Example P718], the figure is 11.1 nM; as for `NC(=O)c1ccc(-c2cnn(C(Cc3ccn(C(F)F)n3)c3ccc(-c4c(-n5cc(C(F)(F)F)nn5)ccc(Cl)c4F)c[n+]3[O-])c2)cc1F` (stereo not shown) [Example P952], 2.3 nM; as for `COC(=O)Nc1ccc(-c2cnn(C(Cc3cccc(OC)c3)c3ccc(-c4c(-n5cnnn5)ccc(Cl)c4F)c[n+]3[O-])c2)cc1` (single isomer, unassigned) [Example P207], 2.9 nM.
As for `Cn1nnc(-c2cnn([C@H](CCOC(F)F)c3ccc(-c4c(-n5cc(Cl)nn5)ccc(Cl)c4F)c[n+]3[O-])c2)c1F` [Example P705], the IC50 amounted to 210 nM.
With `COCC[C@H](c1ccc(-c2c(-n3cnnn3)ccc(Cl)c2F)c[n+]1[O-])n1cc(-c2ccnn2C(F)F)cn1` [Example P561], the IC50 was determined as 78.3 nM.
The same measure for `COC(=O)Nc1ccc(-c2cnn(C(CCOC(C)C)c3ccc(-c4c(-n5cnnn5)ccc(Cl)c4F)c[n+]3[O-])c2)cc1` (single isomer, unassigned) [Example P192]: 24 nM.
The same measure for `NC(=O)c1ccc(-c2cnn(C(Cc3ccn(C(F)F)n3)c3ccc(-c4c(OC(F)F)ccc(Cl)c4F)c[n+]3[O-])c2)cc1F` (single isomer, unassigned) [Example Q72]: 544 nM; for `[O-][n+]1ccc(-c2cnn(C(Cn3cccn3)c3ccc(-c4c(-n5cnnn5)ccc(Cl)c4F)c[n+]3[O-])c2)nc1` (stereo not shown) [Example P320]: 128 nM; for `NC(=O)c1ccc(-c2cnn(C(CC3CC3C(=O)N3CCCCC3)c3ccc(-c4c(C(F)F)ccc(Cl)c4F)c[n+]3[O-])c2)cc1` (stereo not shown) [Example Q37]: 99.1 nM.
The same measure for `[O-][n+]1cc(-c2c(-n3cc(Br)nn3)ccc(Cl)c2F)ccc1[C@@H](CCOC(F)F)n1cc(-c2ncnn2C(F)F)cn1` [Example P788]: 17.4 nM.
For `COC(=O)N(C)CC(c1ccc(-c2c(-n3cnnn3)ccc(Cl)c2F)c[n+]1[O-])n1cc(-c2ccnc(F)c2)cn1` (single isomer, unassigned) [Example P356], the concentration for half-maximal inhibition (IC50) was 30.7 nM.
The same measure for `CN(CC(c1ccc(-c2c(-n3cnnn3)ccc(Cl)c2F)c[n+]1[O-])n1cc(-c2ccncc2)cn1)C(=O)CC(=O)N1CCCCC1` (stereo not shown) [Example P322]: 83.4 nM; for `NC(=O)c1ccnn1CC(c1ccc(-c2c(C(F)F)ccc(Cl)c2F)c[n+]1[O-])n1cc(-c2ccnc(C(F)(F)F)c2)cn1` (single isomer, unassigned) [Example Q28]: 94.6 nM; for `Cn1ncnc1-c1cnn(C(CCOC(F)F)c2ccc(-c3c(-n4cc(C(F)(F)F)nn4)ccc(Cl)c3F)c[n+]2[O-])c1` (stereo not shown) [Example P757]: 31.9 nM.
As for `Cc1nccc(-c2cnn(C(CC3CC3)c3ccc(-c4c(-n5cnnn5)ccc(Cl)c4F)c[n+]3[O-])c2)n1` (stereo not shown) [Example P368], the figure is 621 nM; as for `NC(=O)c1ccc(-c2cnn(C(Cc3ccn(C(F)F)n3)c3ccc(-c4c(C(F)F)ccc(Cl)c4F)c[n+]3[O-])c2)cc1` (single isomer, unassigned) [Example Q68], 111 nM; as for `[O-][n+]1cc(-c2c(-n3cnnn3)ccc(Cl)c2F)ccc1C(Cn1cc(F)c(COC(F)F)n1)n1cc(-c2ccnc(C(F)(F)F)c2)cn1` (single isomer, unassigned) [Example P570], 7.2 nM.
With `[O-][n+]1cc(-c2c(-n3cnnn3)ccc(Cl)c2F)ccc1C(CC1CC1)n1cc(-c2scnc2C2CC2)cn1` (stereo not shown) [Example P535], the IC50 was determined as 220 nM.
For the compound `N#Cc1cn(-c2ccc(Cl)c(F)c2-c2ccc([C@@H](CCOC(F)F)n3cc(-c4cnnn4C(F)F)cn3)[n+]([O-])c2)nn1` [Example P817], the IC50 turned out to be 23.5 nM.
As for `[O-][n+]1cc(-c2c(-n3cnnn3)ccc(Cl)c2F)ccc1[C@@H](Cc1ccc(C(F)(F)F)nc1)n1cc(-c2ccnn2C(F)F)cn1` [Example P777], the figure is 6.5 nM; as for `NC(=O)c1ccc(-c2cnn(C(Cc3ccn(C(F)F)n3)c3ccc(-c4c(C(F)F)ccc(Cl)c4F)c[n+]3[O-])c2)cc1` (single isomer, unassigned) [Example Q69], 0.8 nM.
